{"source": "patent US7754896B2", "about": "“Indol-alanine derivatives as selective S1P4-agonists” (Novartis AG, priority 2004, dated 2010)", "key": {"S1P2": {"molecular_target": "T1, S1P2 (Homo sapiens, UniProt O95136)", "T1 construct": "expressed in transfected cells", "T1 sequence (O95136 whole entry)": "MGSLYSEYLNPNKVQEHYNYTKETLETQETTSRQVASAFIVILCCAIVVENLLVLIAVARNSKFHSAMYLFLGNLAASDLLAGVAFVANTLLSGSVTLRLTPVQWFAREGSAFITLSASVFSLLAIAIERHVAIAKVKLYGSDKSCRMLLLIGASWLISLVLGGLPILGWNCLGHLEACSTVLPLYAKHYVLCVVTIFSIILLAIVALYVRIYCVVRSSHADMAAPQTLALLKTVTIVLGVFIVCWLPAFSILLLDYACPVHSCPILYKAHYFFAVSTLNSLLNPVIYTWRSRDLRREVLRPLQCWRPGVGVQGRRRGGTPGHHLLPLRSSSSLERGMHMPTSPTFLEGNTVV", "test": "Calcium mobilization assay, CHO cells expressing S1P2", "type": "cell-based", "text": "(§1) Human S1P1 (GenBank™ accession number M31210) and S1P3 (GenBank™ accession number X83864) cDNA containing the myc sequence in front to the human S1P1 and S1P3 sequences are inserted in the pcDNA 3.1 vector. The vectors are sequenced to completion to confirm the correctness of the construct. The human S1P2 (GI: 4090955, TREMBL: 0195136) is cloned by a PCR based method. Lung cDNA (marathon cDNA) is obtained (BD Biosciences Chontech, Palo Alto, Calif. 94303, USA). […] The amplified product of around 1100 bp is analyzed by standard agarose gel-electrophoresis. […]\n(§2) CHO cells are plated in black Costar plate (96 or 384 well, 50,000 cells or 12,500 cells, respectively) in a MEM with FCS and cultured for 20-24 h at 37° C. in a CO2 incubator. […] After measuring the baseline for 40 sec, the agonist in HBSS is added and the fluorescence is measured at intervals of 2 sec for 3 to 5 min. […]\n(§3) The compounds mentioned in this application are tested for specificity, e.g. the activity they have in the parental cell line prior transformation with the S1P4 cDNA and for selectivity on CHO cells lines transformed with the S1P1, S1P2, S1P3, and S1P5. […] For example, S1P4 specific and selective compounds may have an EC50 (apparent EC50) measured at S1P4 that is 10×, preferably 100× lower that that measured in wild type CHO cells or In cell expressing any of the other four S1P receptors."}, "CHO": {"system": "CHO", "test": "Calcium mobilization assay, parental CHO cells", "type": "cell-based", "settings": "Cricetulus griseus", "method": "CHO cells are plated in black Costar plate (96 or 384 well, 50,000 cells or 12,500 cells, respectively) in a MEM with FCS and cultured for 20-24 h at 37° C. in a CO2 incubator. After the removal of the culture medium cells are incubated in HBSS medium containing 2 μM Fluo4AM (Molecular Probes, Cat. No, F-1241; 1 mg/ml stock in DMSO), 5 mM probenicid for 1 h at 37° C., rinsed with HBSS buffer, 2.5 mM probenicid and overlaid with the same medium (75 μl for 96-well plates, 50 μl for 384 plates). The plates are transferred to the FLIPR. After measuring the baseline for 40 sec, the agonist in HBSS is added and the fluorescence is measured at intervals of 2 sec for 3 to 5 min. In some cases the cells are pre-treated for 5 h with 50 ng/ml pertussis toxin (Sigma, Cat Nr P2980). […]\nas §3"}, "S1P1": {"molecular_target": "T2, S1P1 (Homo sapiens, UniProt P21453)", "T2 construct": "expressed in transfected cells", "T2 sequence (P21453 whole entry)": "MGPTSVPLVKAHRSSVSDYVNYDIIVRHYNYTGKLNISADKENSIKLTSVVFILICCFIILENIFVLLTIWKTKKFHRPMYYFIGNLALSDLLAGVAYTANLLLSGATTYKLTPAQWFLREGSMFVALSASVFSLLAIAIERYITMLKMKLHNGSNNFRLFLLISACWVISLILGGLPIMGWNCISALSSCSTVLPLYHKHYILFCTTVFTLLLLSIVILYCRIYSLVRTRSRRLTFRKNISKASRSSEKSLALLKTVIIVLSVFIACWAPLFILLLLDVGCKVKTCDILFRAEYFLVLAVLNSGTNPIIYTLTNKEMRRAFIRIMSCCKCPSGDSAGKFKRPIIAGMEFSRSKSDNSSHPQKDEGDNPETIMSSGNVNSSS", "test": "Calcium mobilization assay, CHO cells expressing S1P1", "type": "cell-based", "text": "as §1, §2, §3"}, "S1P3 [1]": {"molecular_target": "T3, S1P3 (Homo sapiens, UniProt Q99500)", "T3 construct": "expressed in transfected cells", "T3 sequence (Q99500 whole entry)": "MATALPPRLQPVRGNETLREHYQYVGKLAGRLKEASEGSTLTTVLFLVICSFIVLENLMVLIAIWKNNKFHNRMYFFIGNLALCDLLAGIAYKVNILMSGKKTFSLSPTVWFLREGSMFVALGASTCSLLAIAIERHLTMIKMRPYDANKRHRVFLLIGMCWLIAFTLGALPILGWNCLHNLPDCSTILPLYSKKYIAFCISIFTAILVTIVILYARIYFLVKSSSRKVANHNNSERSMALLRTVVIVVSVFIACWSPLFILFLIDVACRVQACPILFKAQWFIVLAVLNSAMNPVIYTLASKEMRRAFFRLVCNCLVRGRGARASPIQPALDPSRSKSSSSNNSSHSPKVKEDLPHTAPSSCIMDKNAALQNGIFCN", "test": "Calcium mobilization assay, CHO cells expressing S1P3", "type": "cell-based", "text": "as §1, §2, §3"}, "S1P3 [2]": {"molecular_target": "T3, S1P3", "test": "GTPγS binding assay, S1P3", "type": "biochemical", "settings": "CHO cells expressing S1P3", "text": "as §1, with “USA). Following oligonucleotides are used for the PCR reaction: forward primer CACCATGGGCAGCTTGTACTCGGAGTACCT GM CCC CAA CM GGT CCA G (1 to 45, GenBank™ accession number AF034780) and reverse primer 5′-GATTCAGACCACCGTGTTGCCCTCCAG (1062 to 1039, GenBank™ accession number AF034780), the initiation of the translation (ATG) and the stop codon are underlined.” for “USA).”\nMembrane proteins are prepared from wild type CHO-K1 and the CHO cell clones expressing human S1P4. […] The protein concentration is determined using the Bio Rad Protein Assay and human IgG as standard. […]"}}, "data": [{"smiles": "NC(CNC(=O)c1cc2c(-c3ccccc3Cc3ccccc3)cccc2[nH]1)C(=O)O", "note": "(centres unmarked) [Example 2]", "values": [{"measurement": "EC50", "setting": "S1P2", "value": "> 6", "unit": "µM"}, {"measurement": "EC50", "setting": "CHO", "value": "> 6", "unit": "µM"}, {"measurement": "EC50", "setting": "S1P1", "value": "> 6", "unit": "µM"}, {"measurement": "EC50", "setting": "S1P3 [1]", "value": "> 6", "unit": "µM"}, {"measurement": "EC50", "setting": "S1P3 [2]", "value": "> 10", "unit": "µM"}]}]}
